Source: patent publication US11465980B2, “6-membered aza-heterocyclic containing delta-opioid receptor modulating compounds, methods of using and making the same” (Trevena, Inc., priority 2015, dated 2022)

Experiments:
mouse = test: Tactile allodynia produced by intraplantar Freund's Complete Adjuvant, von Frey (mouse); assay type: in vivo; details: route sc, p < 0.05 vs vehicle
Procedure: Animals were acclimated to the vivarium for at least 48 hr prior to behavioral testing. Inflammation was induced for both rodent species with the administration of an intraplantar (subcutaneous injection into the plantar surface of the hind paw, i.pl.) injection of 0.10 ml Freund's Complete Adjuvant (FCA).
For mouse studies, the experiments were conducted 48 hours after FCA administration. Tactile allodynia was measured using a series of von Frey monofilaments. These filaments are bendable, plastic and intended to poke, not penetrate, the skin. Animals were placed in a Plexiglas chamber (approximately 10 cm×20 cm×25 cm) and allowed to habituate for 5-10 minutes. The chamber was positioned on top of a mesh screen so that von Frey monofilaments can be presented to the plantar surface of the hind paw that is inflamed. The measurement of tactile sensitivity for the injected hind paw is obtained using the up/down method (LaBuda and Little, 2005, J Neurosci. Methods, 144, 175) with […]. Each trial will start with a von Frey force of 0.6 grams delivered to the hind paw for approximately 1-2 seconds. If there was no withdrawal response, the next higher force was be delivered. If there was a response, the next lower force was delivered. This procedure was performed until no response was made at the highest force (2 grams) or until four stimuli are administered following the initial response. The 50% paw withdrawal threshold for the hind paw was be calculated using the following formula: [Xth]log=[vFi]log+ky where [vFr] is the force of the last von Frey used, k is the average interval (in log units) between the von Frey monofilaments, and y is a value that depends upon the pattern of withdrawal responses (Dixon, Annual Review Pharmacol Toxicol, 1980, 20, 441).

rat = test: Tactile allodynia produced by nitroglycerin (migraine model, rat); assay type: in vivo; details: route sc, po, nitroglycerin 10 mg/kg ip, p < 0.05 vs vehicle
male c57bl6J mice = test: Reversal of tactile allodynia produced by repeat dosing of sumatriptan (medication overuse headache); assay type: in vivo, mouse; details: 10 mg/kg s.c., 30 min prior to testing; sumatriptan 0.6 mg/kg i.p. daily for 11 days; FIG. 3
Procedure: Compounds were evaluated for their ability to treat Medication Overuse Headache (“MOH”). Assessment of reversal of tactile allodynia produced by repeat dosing of sumatriptan in mice: Mice (44 male c57bl6J mice, n=8-9/group) were habituated for 2 days on testing rack prior to injections. Mice were treated with vehicle (VEH-VEH (saline) VEH-B1049 (10% BCD-saline)) or sumatriptan (SUMA) (0.6 mg/kg, i.p.) daily for 11 days. Mechanical sensitivity was measured as the 50% withdrawal threshold to manual von Frey hair stimulation on day 12. Baseline measurement were taken 24 hours after final SUMA/VEH injection and 3 h later, post-drug measurements were taken after dosing with B1049 (10 mg/kg, s.c., 30 min prior to testing) or SNC80 (10 mg/kg, i.p., 45 min prior to testing). (***p<0.001 compared to post-drug SUMA-VEH). The results are illustrated in FIG. 3.

## COCCOc1cccc([C@@H]2CCN(CCn3cccc3)[C@H](C)[C@H]2COc2ccc3c(c2)C(=O)NC3)c1 (relative stereo) [Compound B1049, (−)-6-{[(trans, trans)-4-[3-(2-methoxyethoxy)phenyl]-2-methyl-1-[2-(1H-pyrrol-1-yl)ethyl]piperidin-3-yl]methoxy}-2,3-dihydro-1H-isoindol-1-one]
mouse
  Active CFA Dose: ≤10 mg/kg
rat
  Active Migraine Doses: ≤30 mg/kg
Male c57bl6J mice
  reversal of tactile allodynia produced by repeat dosing of sumatriptan: able to reverse tactile allodynia produced by repeat dosing of sumatriptan
